Read-outs that look alike come from different tables or passages of the source.
How the values were obtained:
BRD8 = target: T1, BRD8 (Homo sapiens, UniProt Q9H0E9); assay: Bromodomain binding assay: BRD8
T1 construct: read out by qPCR of the phage DNA
Protocol: (§1) T7 phage strains displaying bromodomains were grown in parallel in 24-well blocks in an E. coli host derived from the BL21 strain. E. coli were grown to log-phase and infected with T7 phage from a frozen stock (multiplicity of infection=0.4) and incubated with shaking at 32° C. until lysis (90-150 minutes). The lysates were centrifuged (5,000×g) and filtered (0.2 μm) to remove cell debris. […] The liganded beads were blocked with excess biotin and washed with blocking buffer (SeaBlock (Pierce), 1% BSA, 0.05 Tween 20, 1 mM DTT) to remove unbound ligand and to reduce non-specific phage binding. […] Test compounds (T62 and 46) were prepared as 1000× stocks in 100% DMSO and subsequently diluted 1:10 in monoethylene glycol (MEG) to create stocks at 100× the screening concentration (resulting stock solution is 10% DMSO/90% MEG). The compounds were then diluted directly into the assays such that the final concentration of DMSO and MEG were 0.1% and 0.9%, respectively. All reactions were performed in polystyrene 96-well plates in a final volume of 0.135 ml. […] The bromodomain concentration in the eluates was measured by qPCR. Compounds were assayed for binding activity against a panel of 40 bromodomain-containing proteins.

human CD4+ T cells = assay: Cytokines produced by human CD4+ T cells stimulated with PMA/ionomycin; assay type: cell-based; conditions: 10 μM compound, PMA/ionomycin 20 h
Text: Freshly isolated human peripheral blood mononuclear cells (PBMCs) were purchased from Astarte Biologics (Redmond, Wash.). CD4+ T cells were isolated from the PBMCs using the EasySep Negative Selection Human CD4+ T Cell Enrichment Kit (Stemcell Technologies, Vancouver, Canada) according to manufacturer's instructions briefly as follows: Unwanted cells were specifically labeled with a cocktail of bispecific tetrameric antibody complexes (TAC) against dextran and cell surface antigens (CD8, CD14, CD16, CD19, CD20, CD36, CD56, CD66b, CD123, TCRγ/δ, glycophorin A). Labeled cells were then targeted for removal by incubation with dextran-coated magnetic particles, leaving the desired CD4+ T cells.
Human CD4+ T cells, isolated as shown in protocol A, were seeded at 2e6 cells/ml in RPMI 1640 containing 10% (v/v) charcoal-dextran treated, heat inactivated FBS (Omega Scientific, Tarzana, Calif.), 0.05 mM 2-Mercaptoethanol (Sigma-Aldrich, St. Louis, Mo.), and 1×Pen/Strep Amphotericin B (Lonza, Allendale, N.J.). Cells were pre-treated with test compounds (10 μM) for 1 h at 37° C. in a humidified atmosphere at 5% CO2. Cells were then stimulated with 50 ng/ml phorbol 12-myristate 13-acetate (PMA)(Sigma-Aldrich, St. Louis, Mo.)+1 μg/ml ionomycin (Life Technologies, Grand Island, N.Y.) for 20 h at 37° C. in a humidified atmosphere at 5% CO2. Supernatant was collected and analyzed using Bio-Plex Pro Human Th17 Cytokine 15-Plex Panel (Bio-Rad Laboratories, Hercules, Calif.) as per manufacturer's protocols. Magnetic beads were read on the Bio-Plex MAGPIX multiplex reader instrument using the accompanying xPONENT 4.2 acquisition software (Bio-Rad Laboratories, Hercules, Calif.). Data were analyzed via the Bio-Plex Manager software v6.1 (Bio-Rad Laboratories).
IL-1β, IL-2, IL-7, and IL-12 (p70) were below the limit of detection under conditions used. The concentrations of the observed analytes of the DMSO control, from top to bottom as listed, are as follows: 31, 585, 24178, 22, 48, 91, 728, 94, 156, 705, 15, 1045, 5501 pg/ml.

BRD2 = target: T2, BRD2 (Homo sapiens, UniProt P25440); assay: Bromodomain binding assay: BRD2
T2 construct: read out by qPCR of the phage DNA
T2 sequence (P25440 whole entry): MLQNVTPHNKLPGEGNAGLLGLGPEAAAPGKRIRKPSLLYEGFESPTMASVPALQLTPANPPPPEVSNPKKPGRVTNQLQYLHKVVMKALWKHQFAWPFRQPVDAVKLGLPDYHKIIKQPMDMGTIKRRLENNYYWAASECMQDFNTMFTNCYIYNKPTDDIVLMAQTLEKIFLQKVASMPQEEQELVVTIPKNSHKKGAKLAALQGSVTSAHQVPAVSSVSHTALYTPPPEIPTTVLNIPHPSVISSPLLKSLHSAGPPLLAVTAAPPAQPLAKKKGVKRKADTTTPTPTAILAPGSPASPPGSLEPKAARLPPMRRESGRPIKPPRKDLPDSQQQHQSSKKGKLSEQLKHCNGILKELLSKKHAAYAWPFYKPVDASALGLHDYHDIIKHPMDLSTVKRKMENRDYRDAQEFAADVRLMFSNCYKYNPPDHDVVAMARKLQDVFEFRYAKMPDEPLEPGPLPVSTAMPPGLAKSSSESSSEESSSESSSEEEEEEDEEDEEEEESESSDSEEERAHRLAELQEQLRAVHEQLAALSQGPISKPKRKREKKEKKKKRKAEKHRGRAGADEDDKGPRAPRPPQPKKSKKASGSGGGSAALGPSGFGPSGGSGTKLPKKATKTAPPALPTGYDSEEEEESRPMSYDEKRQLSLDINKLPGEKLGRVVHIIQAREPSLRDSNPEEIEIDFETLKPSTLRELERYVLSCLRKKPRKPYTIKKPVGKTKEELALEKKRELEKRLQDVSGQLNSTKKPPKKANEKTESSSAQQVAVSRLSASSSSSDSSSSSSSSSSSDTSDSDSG
Protocol: as §1

BRD7 = target: T3, BRD7 (Homo sapiens, UniProt Q9NPI1); assay: Bromodomain binding assay: BRD7
T3 construct: T7 phage strains displaying bromodomains were grown in parallel; made in house; host or cells: E. coli host derived from BL21, infected with T7 phage
T3 sequence (Q9NPI1 131-235 limits assumed, species assumed): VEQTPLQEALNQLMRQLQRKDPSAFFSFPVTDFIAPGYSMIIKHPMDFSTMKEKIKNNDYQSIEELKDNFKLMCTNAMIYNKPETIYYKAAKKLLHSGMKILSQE
Protocol: as §1

BRD9 = target: T4, BRD9 (Homo sapiens, UniProt Q9H8M2); assay: Bromodomain binding assay: BRD9
T4 construct: T7 phage strains displaying bromodomains were grown in parallel; made in house; host or cells: E. coli host derived from BL21, infected with T7 phage
T4 sequence (Q9H8M2 136-240 limits assumed, species assumed): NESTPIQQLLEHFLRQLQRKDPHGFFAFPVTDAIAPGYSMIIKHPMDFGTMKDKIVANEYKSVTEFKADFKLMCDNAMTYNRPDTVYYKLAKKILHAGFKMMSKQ
Protocol: as §1

[1] = tested on: diseased primary human lung fibroblasts; assay: Cytokine response by primary diseased human lung fibroblasts stimulated with IL-17A or IL-17F; assay type: cell-based; conditions: Fibroblast, 48 h
Protocol: Primary lung fibroblasts isolated from a patient diagnosed with asthma were obtained from Lonza (Allendale, N.J.) and maintained in FGM-2 fibroblast growth medium (Lonza). Cells were seeded at 1e5 cells/ml and incubated at 37° C. in a humidified atmosphere at 5% CO2 overnight to adhere. Cells were pre-treated with test compounds (10 μM down by ⅕ in a 3- or 4-point serial dilution series) for 1 h at 37° C. in a humidified atmosphere at 5% CO2. DMSO at a final concentration of 0.1% served as the non-inhibited control. Cells were stimulated with 50 ng/ml of either human recombinant IL-17A or IL-17F (eBioscience, San Diego, Calif.), for 48 h. Supernatant was then collected and analyzed for cytokine concentrations using the Bio-Plex Pro Human Cytokine 17-Plex Panel (Bio-Rad Laboratories, Hercules, Calif.) according to the manufacturer's instructions. Magnetic beads were measured on the Bio-Plex MAGPIX multiplex reader instrument using the accompanying xPONENT 4.2 acquisition software (Bio-Rad Laboratories). Data were analyzed via the Bio-Plex Manager software v6.1 (Bio-Rad Laboratories). Only four (+IL-17F) to six (+IL-17A) cytokines were in range of detection under the conditions used.
G-CSF concentrations were below the limit of detection when cells were stimulated with IL-17F.

[2] = read-out: Percent inhibition of G-CSF (relative to DMSO control)
[3] = read-out: Percent inhibition of GM-CSF (relative to DMSO control)
[4] = read-out: Percent inhibition of IFNγ (relative to DMSO control)
[5] = read-out: Percent inhibition of IL-4 (relative to DMSO control)
[6] = read-out: Percent inhibition of IL-5 (relative to DMSO control)
[7] = read-out: Percent inhibition of IL-6 (relative to DMSO control)
[8] = read-out: Percent inhibition of IL-8 (relative to DMSO control)
[9] = read-out: Percent inhibition of IL-10 (relative to DMSO control)
[10] = read-out: Percent inhibition of IL-13 (relative to DMSO control)
[11] = read-out: Percent inhibition of IL-17A (relative to DMSO control)
[12] = read-out: Percent inhibition of MCP-1 (relative to DMSO control)
[13] = read-out: Percent inhibition of MIP-1β (relative to DMSO control)
[14] = read-out: Percent inhibition of TNFα (relative to DMSO control)
[15] = +50 ng/ml IL-17A, read-out: EC50 values (μM), G-CSF
[16] = +50 ng/ml IL-17A, read-out: EC50 values (μM), IL-6
[17] = +50 ng/ml IL-17A, read-out: EC50 values (μM), IL-8
[18] = +50 ng/ml IL-17A, read-out: EC50 values (μM), MCP-1
[19] = +50 ng/ml IL-17F, read-out: EC50 values (μM), IL-6
[20] = +50 ng/ml IL-17F, read-out: EC50 values (μM), IL-8
[21] = +50 ng/ml IL-17F, read-out: EC50 values (μM), MCP-1

T1 sequence (Q9H0E9 whole entry): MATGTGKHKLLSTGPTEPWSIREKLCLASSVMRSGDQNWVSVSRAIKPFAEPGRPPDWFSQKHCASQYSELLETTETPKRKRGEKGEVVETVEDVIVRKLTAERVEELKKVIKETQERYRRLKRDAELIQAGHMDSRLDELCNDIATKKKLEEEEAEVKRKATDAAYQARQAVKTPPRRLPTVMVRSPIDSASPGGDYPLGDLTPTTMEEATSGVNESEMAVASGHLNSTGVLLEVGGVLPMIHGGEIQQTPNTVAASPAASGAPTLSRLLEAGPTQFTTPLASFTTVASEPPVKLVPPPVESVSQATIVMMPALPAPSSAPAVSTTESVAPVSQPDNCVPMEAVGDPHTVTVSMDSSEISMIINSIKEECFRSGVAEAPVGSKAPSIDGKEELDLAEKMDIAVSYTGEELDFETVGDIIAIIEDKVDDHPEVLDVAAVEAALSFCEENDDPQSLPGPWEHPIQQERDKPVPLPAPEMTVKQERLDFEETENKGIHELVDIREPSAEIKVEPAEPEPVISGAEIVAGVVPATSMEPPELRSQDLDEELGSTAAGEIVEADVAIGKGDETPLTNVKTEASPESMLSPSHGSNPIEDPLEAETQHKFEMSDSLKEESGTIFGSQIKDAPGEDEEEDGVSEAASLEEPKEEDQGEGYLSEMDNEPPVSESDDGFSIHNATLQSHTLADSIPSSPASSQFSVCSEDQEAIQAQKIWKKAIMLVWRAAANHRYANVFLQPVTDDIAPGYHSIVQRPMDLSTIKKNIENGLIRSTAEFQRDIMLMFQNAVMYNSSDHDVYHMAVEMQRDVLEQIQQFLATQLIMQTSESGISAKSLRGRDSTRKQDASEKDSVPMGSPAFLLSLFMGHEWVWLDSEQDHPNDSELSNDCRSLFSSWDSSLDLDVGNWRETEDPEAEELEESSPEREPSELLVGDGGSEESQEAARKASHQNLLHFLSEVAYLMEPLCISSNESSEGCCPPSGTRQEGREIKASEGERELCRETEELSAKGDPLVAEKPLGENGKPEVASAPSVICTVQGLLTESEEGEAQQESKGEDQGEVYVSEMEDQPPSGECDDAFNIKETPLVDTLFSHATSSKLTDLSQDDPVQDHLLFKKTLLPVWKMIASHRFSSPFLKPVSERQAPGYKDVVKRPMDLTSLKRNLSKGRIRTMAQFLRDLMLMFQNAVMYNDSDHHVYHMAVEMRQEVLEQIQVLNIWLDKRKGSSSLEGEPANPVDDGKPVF

SMILES	inhibition at 10 µM (human CD4+ T cells; [2])	inhibition at 10 µM (human CD4+ T cells; [3])	inhibition at 10 µM (human CD4+ T cells; [4])	inhibition at 10 µM (human CD4+ T cells; [5])	inhibition at 10 µM (human CD4+ T cells; [6])	inhibition at 10 µM (human CD4+ T cells; [7])	inhibition at 10 µM (human CD4+ T cells; [8])	inhibition at 10 µM (human CD4+ T cells; [9])	inhibition at 10 µM (human CD4+ T cells; [10])	inhibition at 10 µM (human CD4+ T cells; [11])	inhibition at 10 µM (human CD4+ T cells; [12])	inhibition at 10 µM (human CD4+ T cells; [13])	inhibition at 10 µM (human CD4+ T cells; [14])	EC50 [1, 15]	EC50 [1, 16]	EC50 [1, 17]	EC50 [1, 18]	EC50 [1, 19]	EC50 [1, 20]	EC50 [1, 21]	other results
CCOc1cc(C(=O)N2CCC(N3CCCC3)CC2)ccc1Nc1cc2c(cn1)N(C)C(=O)c1ccccc1N2C [Compound 46, 3-(2-Ethoxy-4-(4-(pyrrolidin-1-yl)piperidine-1-carbonyl)phenylamino)-5,11-dimethyl-5H-benzo[e]pyrido[3,4-b][1,4]diazepin-10(11H)-one]	26.4%	96.7%	18.3%	11.7%	49.1%	89.3%	-109%	97.3%	32.1%	52.2%	67.6%	63.9%	64%								Kd (BRD8): > 20000 nM; Kd (BRD2): 55 nM; Kd (BRD7): > 20000 nM; Kd (BRD9): > 20000 nM
CCOc1cc(C(=O)NCC2CC2)ccc1Nc1cc2c(cn1)N(C)C(=O)c1ccccc1N2C [Compound 57]	34.5%	95.9%	50.9%	31.4%	42.8%	91.1%	-44.1%	97.7%	55.6%	78.8%	70.6%	56.2%	58.3%								
CCOc1cc(C(=O)N2CCC(N3CCN(C)CC3)CC2)ccc1Nc1cc2c(cn1)N(C)C(=O)c1ccccc1N2C [Compound 61]	25.3%	96.6%	-11.8%	-7.7%	21.9%	85.8%		97.6%	0.6%	45.4%	65.5%	59.2%	50.9%	1.99 µM	6.98 µM	0.54 µM	1.33 µM	4.45 µM	0.45 µM	1.57 µM	
CCOc1cc(C(=O)N2CCNCC2)ccc1Nc1cc2c(cn1)N(C)C(=O)c1ccccc1N2C [Compound 62]	27.6%	95.4%	15.6%	-4.8%	29.7%	86.9%	-179%	97.2%	19.8%	49.7%	66.1%	66.9%	70.1%								
CCOc1cc(C(=O)N2CCC(N3CCN(C)CC3)CC2)ccc1Nc1cc2c(cn1)N(C)C(=O)c1occc1N2C [Compound 65]	36.1%	89.5%	12.3%	10.1%	47.7%	87.7%		98%	18.3%	39.3%	64.2%	55.8%	56.9%	3.5 µM	5.69 µM	0.48 µM	1.31 µM	2.49 µM	0.52 µM	1.85 µM	
CCOc1cc(C(=O)N2CC[C@@H](N(C)C)C2)ccc1Nc1cc2c(cn1)N(C)C(=O)c1ccccc1N2C [Compound 115]														0.86 µM	1.16 µM	< 0.08 µM	0.35 µM	0.95 µM	< 0.08 µM	0.36 µM	
CCOc1cc(C(=O)N[C@H]2CC[C@H](O)CC2)ccc1Nc1cc2c(cn1)N(C)C(=O)c1ccccc1N2C [Compound T62]																					Kd (BRD8): > 20000 nM; Kd (BRD2): 93 nM; Kd (BRD7): > 20000 nM; Kd (BRD9): > 20000 nM
